Measurements reported in patent US5981555A, “Compositions, kits and methods for administration of antilipemic drugs” (Lipoprotein Technologies, Inc., priority 1997, dated 1999).
“And” between values parts separate entries of the source, which are not always exact repeats. Identical values can stand only once. Like-named read-outs stand apart in the source and are kept apart here.

How the values were obtained:
[1] = tested on: inflammation; conditions: cited from earlier work
[2] = tested on: human macrophage cell line THP-1; assay: PG release from THP-1 cells in vitro (Examples 3 and 6); assay type: cell-based; conditions: for IC50: Homo sapiens
Source text: Indomethacin was used in place of aspirin to inhibit PG production in THP-1 cells in vitro as in Example 3.

[3] = tested on: PG production in other cell types; conditions: cited from earlier work
[4] = tested on: prostaglandin synthetase (cyclooxygenase); conditions: Flower, Pharmacol. Rev. 26:33 (1974); cited from earlier work
[5] = tested on: nicotinic acid-induced flush; conditions: pretreatment at 4.5 and 0.5 hr; indomethacin 25 or 50 mg/kg; aspirin 50, 100, or 200 mg/kg; cited from earlier work
[6] = tested on: flushing induced by nicotinic acid; assay type: in vivo, human
Method: Two weeks later, the same subjects were administered 40 of mg aspirin for each of four days.

[7] = tested on: PGD-M, the major urinary metabolite of PGD2; assay: Urinary excretion of PGD-M after nicotinic acid (Example 1, FIGS. 1, 2); assay type: in vivo, human
Method: (§1) Two weeks later, the same subjects were administered 40 of mg aspirin for each of four days. […] Urinary excretion of PGD-M was much lower (FIG. 2), confirming the suppressive activity of aspirin on PGD2 release. Release of PGF2 after aspirin pretreatment (40 mg) was approximately 10% of baseline (FIG. 3).

[8] = tested on: PGF2 release; assay: PG release following topical nicotinic acid with or without aspirin pretreatment (FIG. 3); assay type: in vivo, human; conditions: aspirin pretreatment (40 mg) (FIG. 3)
Method: as §1

[9] = tested on: flushing induced by nicotinic acid; assay: Niacin flushing after bid aspirin pretreatment (Example 2); assay type: in vivo, human
Method: Three subjects were administered 40 mg of aspirin twice daily (i.e., bid) in the morning and evening for three days.

[10] = tested on: flushing induced by niacin; assay: Niacin flushing after sustained release aspirin pretreatment (Example 7); assay type: in vivo, human
[11] = tested on: flushing induced by nicotinic acid; assay: Cutaneous blood flow (FLUX) by laser Doppler, flushing severity and duration (Example 8); assay type: in vivo, human; conditions: mean ± S.D., n = 14
Method: (§2) Fourteen healthy male subjects completed the study. After randomization, subjects were given a placebo or 81 mg of aspirin bid for three days. The study was double-blind.
(§3) Room temperature and humidity were constant during the trial.
(§4) Flushing was measured in three ways: (1) quantitatively using laser Doppler, (2) subjectively via questionnaire, and (3) by measuring a biochemical marker of flushing, a stable metabolite of prostaglandin D2. Complete pharmacokinetic parameters in timed blood samples after oral administration were also measured in plasma and urine. Flushing, as measured by continuous and simultaneous recording of cutaneous blood flow on each side of the neck using laser Doppler techniques (Moor Instruments), provides an arbitrary representation of cutaneous blood flow defined as FLUX. Flux is expressed in arbitrary units (AU) from baseline (FLUXpeak-FLUXbaseline; see FIG. 11B). Duration of flush is the time in minutes from the beginning to the end of Flux shift in the DRTSOFT plot.

[12] = tested on: flushing induced by nicotinic acid; assay: Local skin temperature change (Example 8); assay type: in vivo, human; conditions: mean ± S.D.; n = 14; p = 0.016 (paired t test)
Method: as §2, §3

[13] = tested on: flushing induced by nicotinic acid; assay: Rating of flushing by subject (Example 8); assay type: in vivo, human; conditions: number of subjects; n = 14; p < 0.05 (Wilcoxon)
Method: as §2, §3, §4

[14] = tested on: flushing induced by nicotinic acid; assay: Rating of flushing by investigator (Example 8); assay type: in vivo, human; conditions: number of subjects; n = 14; p < 0.05 (Wilcoxon)
Method: as §2, §3, §4

[15] = tested on: cutaneous flush induced by nicotinic acid; conditions: 975 mg total: 650 mg at 1 hr and 325 mg at 0.5 hr prior to nicotinic acid; cited from earlier work
[16] = tested on: niacin-induced cutaneous reactions; conditions: cited from earlier work
[17] = tested on: platelet aggregation; conditions: cited from earlier work
[18] = tested on: eicosanoid metabolites in urine; conditions: oral administration (FIG. 8)
Source text: (§5) Langerhans cells, the macrophages of skin, may differ from other macrophages in releasing lesser amounts of eicosanoids other than PGD2.

[19] = tested on: release of eicosanoids from skin; conditions: topical niacin (FIG. 7)
Source text: as §5

[20] = tested on: human circulating monocytes; conditions: FIG. 4
[21] = within days after initiating therapy; cited from earlier work
[22] = tested on: prostaglandin F2, a metabolite of D; conditions: cited from earlier work
[23] = Physician's Desk Reference, 51st ed.
[24] = 325 mg aspirin 30 minutes prior to niacin
[25] = initial testing, out of 306 patients, over 33 months

CC(C(=O)O)c1cccc(Oc2ccccc2)c1 (stereo not shown) [Fenoprofen]
Minimum Anti-inflammatory Dosage ([1]; Goodman and Gilman, 9th ed.): 300 mg

COc1ccc2c(c1)c(CC(=O)O)c(C)n2C(=O)c1ccc(Cl)cc1 [indomethacin]
IC50 ([2]; THP-1, read-out: IC50, PG production in THP-1 cells): ~1 nM
sensitivity of THP-1 cells relative to other cells ([2]; THP-1 versus other cells): approximately 1000 times
inhibitory concentrations on PG production in other cell types [3]: micromolar range
inhibition of synthesis of PGs such as E2 and F2, concentrations [4]: high micromolar
inhibition of nicotinic acid-induced flush (increase in ear temperature) [5]: inhibited
Minimum Anti-inflammatory Dosage [1, 23]: 25 mg

O=C(O)CCc1nc(-c2ccccc2)c(-c2ccccc2)o1 [Oxaprozin]
Minimum Anti-inflammatory Dosage ([1]; Goodman and Gilman, 9th ed.): 600 mg

O=C(c1ccccc1)c1ccc2n1CCC2C(=O)O (stereo not shown) [Ketorolac]
Minimum Anti-inflammatory Dosage ([1]; Goodman and Gilman, 9th ed.): 5 mg

CC(=O)Oc1ccccc1C(=O)O [aspirin]
subjective sensation ([6]; 40 mg aspirin 1 hour prior to 500 mg immediate release nicotinic acid, all three subjects): subjective sensation of cutaneous warmth
flushing ([6]; 40 mg aspirin 1 hour prior to single 500 mg immediate release nicotinic acid, all three subjects): severe flushing
flushing after multi-day aspirin pretreatment ([6]; 40 mg aspirin each of four days, 500 mg nicotinic acid on fourth day 1 hour after aspirin, two of three subjects): virtually no flushing
flushing after multi-day aspirin pretreatment, third subject ([6]; 40 mg aspirin each of four days, 500 mg nicotinic acid on fourth day, third subject): some flushing, but less than that encountered previously
urinary excretion of PGD-M after multi-day aspirin ([7]; 40 mg aspirin each of four days, 500 mg nicotinic acid on fourth day (FIG. 2)): much lower
release of PGF2 after aspirin pretreatment [8]: approximately 10 % of baseline
flushing, bid aspirin pretreatment ([9]; 40 mg aspirin bid three days, fourth day 500 mg immediate release nicotinic acid with 40 mg aspirin, three subjects): None of the subjects experienced any appreciable flushing
IC50 ([2]; THP-1, read-out: IC50, inhibition of niacin-stimulated release of PG from THP-1 cells): ~380 nM and ~0.07 µg/mL
flushing, aspirin 1/2 hour before niacin, third subject ([10]; 325 mg aspirin 1/2 hour before 500 mg immediate release niacin, third subject): severe flushing
flushing, aspirin 1/2 hour before niacin ([10]; 325 mg aspirin 1/2 hour before 500 mg immediate release niacin, two subjects): flushing, though slightly diminished
side effects from niacin versus sustained release aspirin predosing ([10]; 325 mg aspirin 1/2 hour before niacin, compared with SR aspirin for 6 hours, three subjects): significantly greater side effects
AUCflux ([11]; aspirin 81 mg bid three days then 500 mg nicotinic acid + 81 mg aspirin vs placebo then niacin, p = 0.0001 (paired t test)): 3022.5 + 2772
Flushing duration ([11]; p = 0.002 (paired t test)): 15.8 ± 16 min
Local T° change [12]: 0.61 ± 0.56 °C
Rating of Flushing by Subject: Mild [13]: 4
Rating of Flushing by Subject: Moderate [13]: 1
Rating of Flushing by Subject: None [13]: 6
Rating of Flushing by Subject: Severe [13]: 3
Rating of Flushing by Subject: Very severe [13]: 0
Rating of Flushing by Investigator: Mild [14]: 2
Rating of Flushing by Investigator: Moderate [14]: 3
Rating of Flushing by Investigator: None [14]: 8
Rating of Flushing by Investigator: Severe [14]: 1
Rating of Flushing by Investigator: Very severe [14]: 0
inhibition of synthesis of PGs such as E2 and F2, concentrations [4]: high micromolar
inhibition of nicotinic acid-induced flush (increase in ear temperature) [5]: inhibited
reduction of cutaneous flush [15]: significantly reduce cutaneous flush
niacin-associated flushing, warmth, itching and tingling, 80 mg aspirin ([16]; 80 mg aspirin 30 minutes prior to niacin, compared to placebo): even more aggravated flushing, warmth, itching and tingling
niacin-associated warmth, flushing, itching and tingling, 325 mg aspirin [16, 24]: decrease the warmth and flushing associated with niacin, but not the itching and tingling
patients with flushing and warmth [16, 24]: at least 72 % of the patients
patients with complete inhibition of platelet aggregation [17, 25]: 288 patients
patients with partial inhibition of platelet aggregation [17, 25]: 78 patients
patients with initial partial inhibition achieving complete inhibition ([17]; of 52 patients, dosage escalation or fluctuation of response): 35
patients reverted to partial inhibition on further testing ([17]; of the 35): 8
patients converted from complete to partial inhibition ([17]; repeat testing, without change in aspirin dosage): about 33%
Minimum Anti-inflammatory Dosage [1, 23]: 325 mg

CC(C)Cc1ccc(C(C)C(=O)O)cc1 (stereo not shown) [ibuprofen]
inhibition of synthesis of PGs such as E2 and F2, concentrations [4]: high micromolar

COc1ccc2cc([C@H](C)C(=O)O)ccc2c1 [naproxen]
inhibition of synthesis of PGs such as E2 and F2, concentrations [4]: high micromolar
Minimum Anti-inflammatory Dosage [1, 23]: 250 mg

CCc1cccc2c3c([nH]c12)C(CC)(CC(=O)O)OCC3 (stereo not shown) [Etodolac]
Minimum Anti-inflammatory Dosage ([1]; Goodman and Gilman, 9th ed.): 200 mg

CC1=C(CC(=O)O)c2cc(F)ccc2/C1=C\c1ccc([S+](C)[O-])cc1 (stereo not shown) [Sulindac]
Minimum Anti-inflammatory Dosage ([1]; Goodman and Gilman, 9th ed.): 150 mg

CC(C(=O)O)c1cccc(C(=O)c2ccccc2)c1 (stereo not shown) [Ketoprofen]
Minimum Anti-inflammatory Dosage ([1]; Goodman and Gilman, 9th ed.): 150 mg

O=C(O)Cc1ccccc1Nc1c(Cl)cccc1Cl [Diclofenac]
Minimum Anti-inflammatory Dosage ([1]; Goodman and Gilman, 9th ed.): 100 mg

COc1ccc2cc(CCC(C)=O)ccc2c1 [Nabumetone]
Minimum Anti-inflammatory Dosage [1, 23]: 500 mg

CC(C(=O)O)c1ccc(-c2ccccc2)c(F)c1 (stereo not shown) [Flurbiprofen]
Minimum Anti-inflammatory Dosage ([1]; Goodman and Gilman, 9th ed.): 50 mg

CN1C(C(=O)Nc2ccccn2)=C(O)c2ccccc2S1(=O)=O [Piroxicam]
Minimum Anti-inflammatory Dosage [1, 23]: 10 mg

O=C(O)c1cccnc1 [niacin, nicotinic acid]
excretion of PGD-M in urine ([7]; 500 mg nicotinic acid 1 hour after single 40 mg aspirin, over 7 hours (FIG. 1)): significant amounts
flushing, nicotinic acid without aspirin ([9]; single 500 mg dose without aspirin, all three subjects): severe flushing
in vitro release of PGs from THP-1 ([2]; FIG. 4): stimulate in vitro release of PGs
metabolites of PGD2 in urine [18]: increased amounts
metabolites of leukotriene in urine [18]: increased amounts
metabolites of thromboxane in urine [18]: increased amounts
release of 9a, 11b-PGF2 [19]: increased the release
release of thromboxane (TxB2) [19]: did not release
in vitro release of PGs from human circulating monocytes [20]: stimulate in vitro release of PGs
patients who cease taking nicotinic acid [21]: 30-40 % of patients
level of prostaglandin F2 on repeated administration ([22]; after 6 days of continuous, twice daily administration): decreases markedly
concentration of prostaglandin F2 in blood coming from the skin ([22]; following administration of niacin): dramatic rise

O=C(O)c1ccccc1Nc1cccc(C(F)(F)F)c1 [flufenamic acid]
inhibition of synthesis of PGs such as E2 and F2, concentrations [4]: high micromolar

Cc1ccc(C(=O)c2ccc(CC(=O)O)n2C)cc1 [Tolmetin]
Minimum Anti-inflammatory Dosage [1, 23]: 400 mg

CCCCC1C(=O)N(c2ccccc2)N(c2ccccc2)C1=O [phenylbutazone]
inhibition of synthesis of PGs such as E2 and F2, concentrations [4]: high micromolar
